Source: patent US6653306B1, “Epoxy-steroidal aldosterone antagonist and angiotensin II antagonist combination therapy” (G.D. Searle & Co., priority 1995, dated 2003)
pIC50: −log10 of the molar value.

Legend:
[1] = biological target: angiotensin II AT1 receptor; test: Assay A: Angiotensin II binding activity (125I-AII displacement, rat uterine membrane preparation)
Method: Assay A: Antiotensin II Binding Activity
Compounds of the invention were tested for ability to bind to the smooth muscle angiotensin II receptor using a rat uterine membrane preparation. […] Rat uterine membranes were prepared from fresh tissue. All procedures were carried out at 4° C. Uteri were stripped of fat and homogenized in phosphate-buffered saline at pH 7.4 containing 5 mM EDTA. The homogenate was centrifuged at 1500×g for 20 min., and the supernatant was recentrifuged at 100,000×g for 60 min. The pellet was resuspended in buffer consisting of 2 mM EDTA and 50 mM Tris-HCl (pH 7.5) to a final protein concentration of 4 mg/ml. […] The reaction was initiated by the addition of membrane protein and the mixture was incubated at 25° C. for 60 min. The incubation was terminated with ice-cold 50 mM Tris-HCl (pH 7.5) and the mixture was filtered to separate membrane-bound labelled peptide from the free ligand. The incubation tube and filter were washed with ice-cold buffer. Filters were assayed for radioactivity in a Micromedic gamma counter.
Nonspecific binding was defined as binding in the presence of 10 μM of unlabelled AII. Specific binding was calculated as total binding minus nonspecific binding. […] Binding data were analyzed by a nonlinear least-squares curve fitting program.

pressor response to AII = test: Assay C: In vivo intragastric pressor assay response for AII antagonists; set-up: species or system rat; conditions: intragastric, or intraduodenal for examples listed; for inhibition at 3 mg/kg / Assay C Duration: dose 3 mg/kg
Method: Assay C: In Vivo Intragastric Pressor Assay Response for AII Antagonists
Male Sprague-Dawley rats weighing 225-300 grams were anesthetized with methohexital (30 mg/kg, i.p.) and catheters were implanted into the femoral artery and vein. The catheters were tunneled subcutaneously to exit dorsally, posterior to the head and between the scapulae. The catheters were filled with heparin (1000 units/ml of saline). The rats were returned to their cage and allowed regular rat chow and water ad libitum. After full recovery from surgery (3-4 days), rats were placed in Lucite holders and the arterial line was connected to a pressure transducer. Arterial pressure was recorded on a Gould polygraph (mmHg). Angiotensin II was administered as a 30 ng/kg bolus via the venous catheter delivered in a 50 μl volume with a 0.2 ml saline flush. The pressor response in mm Hg was measured by the differer.-:e from pre-injection arterial pressure to the maximum pressure achieved. The AII injection was repeated every 10 minutes until three consecutive injections yielded responses within 4 mmHg of each other. These three responses were then averaged and represented the control response to AII. The test compound was suspended in 0.5% methylcellulose in water and was administered by gavage. The volume administered was 2 ml/kg body weight. The standard dose was 3 mg/kg. Angiotensin II bolus injections were given at 30, 45, 60, 75, 120, 150, and 180 minutes after gavage. The pressor response to AII was measured at each time point. The rats were then returned to their cage for future testing. A minimum of 3 days was allowed between tests. Percent inhibition was calculated for each time point following gavage by the following formula:
[(Control Response—Response at time point)/Control Response]×100.

Row | Structure (SMILES) | pIC50 [1] | Assay C Inhibition (pressor response to AII; dose cell empty (dose not given)) | inhibition at 3 mg/kg (pressor response to AII; Rattus norvegicus) | Assay C Duration (pressor response to AII) | inhibition at 10 mg/kg (pressor response to AII; Rattus norvegicus) | inhibition at 30 mg/kg (pressor response to AII; Rattus norvegicus) | inhibition at 100 mg/kg (pressor response to AII; Rattus norvegicus, dose 100 mg/kg)
1 | CCCCn1nc(C(=O)N(C)C(C)(C)C)nc1Cc1ccc(-c2ccccc2-c2nnn[nH]2)nc1 [Compound 171] | 7.55 | – | 0% | 0 min | – | – | –
2 | CCCCCc1cn(CCCC)c(=O)n1Cc1ccc(-c2ccccc2-c2nnn[nH]2)nc1 [Compound 190] | 8.00 | – | 10% | 180 min | – | – | –
3 | CCCCc1cn(CC(C)(C)C)c(=O)n1Cc1ccc(-c2ccccc2-c2nnn[nH]2)nc1 [Compound 202] | 7.92 | – | 65% | >180 min | – | – | –
4 | CCCCc1cn(C2CCCCC2)c(=O)n1Cc1ccc(-c2ccccc2-c2nnn[nH]2)nc1 [Compound 205] | 7.70 | – | 40% | >180 min | – | – | –
5 | CCCCc1cn(CCc2cccs2)c(=O)n1Cc1ccc(-c2ccccc2-c2nnn[nH]2)nc1 [Compound 209] | 8.30 | – | 25% | >180 min | – | – | –
6 | CCCCc1cn(CCc2ccccc2)c(=O)n1Cc1ccc(-c2ccccc2-c2nnn[nH]2)nc1 [Compound 210] | 8.44 | – | 15% | 180 min | – | – | –
7 | CCCCc1cn(-c2ccccc2Cl)c(=O)n1Cc1ccc(-c2ccccc2-c2nnn[nH]2)nc1 [Compound 216] | 8.27 | – | 50% | >180 min | – | – | –
8 | CCCCc1cn(-c2ccccc2C)c(=O)n1Cc1ccc(-c2ccccc2-c2nnn[nH]2)nc1 [Compound 217] | 8.03 | – | 65% | >180 min | – | – | –
9 | CCCCc1cn(-c2c(F)cccc2F)c(=O)n1Cc1ccc(-c2ccccc2-c2nnn[nH]2)nc1 [Compound 220] | 8.15 | – | 75% | 120 min | – | – | –
10 | CCCCc1cn(-c2ccccc2C(C)(C)C)c(=O)n1Cc1ccc(-c2ccccc2-c2nnn[nH]2)nc1 [Compound 229] | 7.72 | – | 40% | >180 min | – | – | –
11 | CCCCc1nc(CCCC)n(Cc2ccc(-c3ccccc3-c3nnn[nH]3)nc2)n1 [Compound 241] | – | – | 40% | – | – | – | –
12 | CCCCc1nc(-c2c(F)cccc2F)n(Cc2ccc(-c3ccccc3-c3nnn[nH]3)nc2)n1 [Compound 270] | 7.68 | – | – | – | – | – | –
13 | CCCCc1nc(CCCC)n(Cc2ccc(-c3ccccc3C(=O)O)cc2)n1 [compound 2] | – | – | – | – | 95% | 98% | –
14 | CCCCc1nc(CCCC)n(Cc2ccc(-c3ccccc3-c3nnn[nH]3)cc2)n1 [compound 3] | – | – | – | – | 50% | 100% | –
15 | CCCCc1nc(CCCC)n(Cc2ccc(-c3ccccc3C(=O)NNS(=O)(=O)C(F)(F)F)cc2)n1 [compound 5] | – | – | – | – | – | 38% | –
16 | CCCCc1nc(Cl)n(Cc2ccc(-c3ccccc3-c3nnn[nH]3)cc2)n1 [compound 9] | – | – | – | – | – | 80% | 100%
17 | CCCCc1nc(C(F)(F)CCC)nn1Cc1ccc(-c2ccccc2-c2nnn[nH]2)cc1 [compound 10] | – | – | 86% | – | – | 100% | –

The next lines start with results.

Row | pIC50 [1] | Structure (SMILES) | Assay C Inhibition (pressor response to AII; dose cell empty (dose not given)) | inhibition at 3 mg/kg (pressor response to AII; Rattus norvegicus) | Assay C Duration (pressor response to AII) | inhibition at 10 mg/kg (pressor response to AII; Rattus norvegicus) | inhibition at 30 mg/kg (pressor response to AII; Rattus norvegicus) | inhibition at 100 mg/kg (pressor response to AII; Rattus norvegicus, dose 100 mg/kg)
18 | 8.10 | CCCCc1nn(CC(=O)c2ccccc2)c(=O)n1Cc1ccc(-c2ccccc2-c2nn[nH]n2)cc1 [Compound 82] | 20% | – | – | – | – | –
19 | 7.89 | CCCCn1nc(CCc2cccs2)nc1Cc1ccc(-c2ccccc2-c2nnn[nH]2)nc1 [Compound 153] | – | 25% | >180 min | – | – | –
20 | 7.68 | CCCCn1nc(C(O)CCC)nc1Cc1ccc(-c2ccccc2-c2nnn[nH]2)nc1 (stereo not drawn) [Compound 159] | – | 10% | 150 min | – | – | –
21 | 7.59 | CCCCn1nc(C(F)(F)CCC)nc1Cc1ccc(-c2ccccc2-c2nnn[nH]2)nc1 [Compound 170] | – | 40% | >180 min | – | – | –
22 | 7.57 | CCCCn1nc(C(OC)OC)nc1Cc1ccc(-c2ccccc2-c2nnn[nH]2)nc1 [Compound 175] | – | 0% | 0 min | – | – | –
23 | 7.70 | CCCCn1nc(C2OCCCO2)nc1Cc1ccc(-c2ccccc2-c2nnn[nH]2)nc1 [Compound 180] | – | 25% | 180 min | – | – | –
24 | 7.68 | CCCCn1nc(C2OCC(C)(C)CO2)nc1Cc1ccc(-c2ccccc2-c2nnn[nH]2)nc1 [Compound 181] | – | 20% | 180 min | – | – | –
25 | 8.19 | CCCCc1cn(CCCC)c(=O)n1Cc1ccc(-c2ccccc2-c2nnn[nH]2)nc1 [Compound 185] | – | 50% | >180 min | – | – | –
26 | 7.42 | CCCc1cn(CCC)c(=O)n1Cc1ccc(-c2ccccc2-c2nnn[nH]2)nc1 [Compound 186] | – | 25% | 180 min | – | – | –
27 | 7.09 | CCCCn1cc(C2CCCCC2)n(Cc2ccc(-c3ccccc3-c3nnn[nH]3)nc2)c1=O [Compound 191] | – | 10% | 180 min | – | – | –
28 | 7.96 | CCCCn1cc(CCC2CC2)n(Cc2ccc(-c3ccccc3-c3nnn[nH]3)nc2)c1=O [Compound 193] | – | 10% | 180 min | – | – | –
29 | 8.12 | CCCCc1cn(CCC(C)C)c(=O)n1Cc1ccc(-c2ccccc2-c2nnn[nH]2)nc1 [Compound 198] | – | 35% | >180 min | – | – | –
30 | 8.00 | CCCCCn1cc(CCCC)n(Cc2ccc(-c3ccccc3-c3nnn[nH]3)nc2)c1=O [Compound 199] | – | 60% | >180 min | – | – | –
31 | 7.70 | CCCCc1cn(C(C)C)c(=O)n1Cc1ccc(-c2ccccc2-c2nnn[nH]2)nc1 [Compound 200] | – | 45% | >180 min | – | – | –
32 | 7.77 | CCCCc1cn(C(C)(C)C)c(=O)n1Cc1ccc(-c2ccccc2-c2nnn[nH]2)nc1 [Compound 201] | – | 10% | 180 min | – | – | –
33 | 8.04 | CCCCc1cn(CCC(C)(C)C)c(=O)n1Cc1ccc(-c2ccccc2-c2nnn[nH]2)nc1 [Compound 203] | – | 50% | >180 min | – | – | –
34 | 7.80 | CCCCc1cn(CC(CC)CC)c(=O)n1Cc1ccc(-c2ccccc2-c2nnn[nH]2)nc1 [Compound 204] | – | 75% | >180 min | – | – | –
35 | 8.27 | CCCCc1cn(CCC2CC2)c(=O)n1Cc1ccc(-c2ccccc2-c2nnn[nH]2)nc1 [Compound 206] | – | 30% | >180 min | – | – | –
36 | 7.66 | CCCCc1cn(CC2CCCC2)c(=O)n1Cc1ccc(-c2ccccc2-c2nnn[nH]2)nc1 [Compound 208] | – | 50% | >180 min | – | – | –
37 | 7.74 | CCCCc1cn(CCC2CCCC2)c(=O)n1Cc1ccc(-c2ccccc2-c2nnn[nH]2)nc1 [Compound 211] | – | 35% | >180 min | – | – | –
38 | 7.64 | CCCCc1cn(CCC2=CCCC2)c(=O)n1Cc1ccc(-c2ccccc2-c2nnn[nH]2)nc1 [Compound 212] | – | 15% | 180 min | – | – | –
39 | 8.32 | CCCCc1cn(-c2c(Cl)cccc2Cl)c(=O)n1Cc1ccc(-c2ccccc2-c2nnn[nH]2)nc1 [Compound 221] | – | 25% | >180 min | – | – | –
40 | 7.85 | CCCCc1cn(CCCC)c(=O)n1Cc1ccc(-c2ccccc2-c2nnn[nH]2)cn1 [Compound 223] | – | 20% | >180 min | – | – | –
41 | 8.35 | CCCCc1cn(-c2ccccc2CC)c(=O)n1Cc1ccc(-c2ccccc2-c2nnn[nH]2)nc1 [Compound 228] | – | 80% | >180 min | – | – | –
42 | 6.54 | CCCCc1nc(-c2ccccc2OC)n(Cc2ccc(-c3ccccc3-c3nnn[nH]3)nc2)n1 [Compound 266] | – | – | – | – | – | –
43 | 8.01 | CCCCc1nc(-c2c(F)cccc2F)nn1Cc1ccc(-c2ccccc2-c2nnn[nH]2)nc1 [Compound 269] | – | – | – | – | – | –
